Laboratory results published in patent publication US10626349B2, “Cleavable surfactants” (PROMEGA CORPORATION, priority 2007, dated 2020).

How the values were obtained:
[1] = target: T1, Myoglobin from horse heart digested with trypsin (Equus caballus, UniProt P68082); test: Myoglobin/Trypsin digest, HPLC peak area versus RapiGest control; format: biochemical; details: 0.01% surfactant, trypsin 50:1, 20 minutes at 37° C.; ratio to RapiGest control, >1 = more digestion
T1 construct: Myoglobin from horse heart; from tissue; host or cells: horse heart
T1 sequence (P68082 2-154 limits assumed): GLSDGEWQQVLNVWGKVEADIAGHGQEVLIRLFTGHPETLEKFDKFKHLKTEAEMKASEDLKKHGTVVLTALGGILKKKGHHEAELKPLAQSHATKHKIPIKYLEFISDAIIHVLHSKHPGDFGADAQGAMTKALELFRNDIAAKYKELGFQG
Experimental: Myoglobin from horse heart (typically 25 μs) was digested with trypsin (Promega) at a 50:1 ratio in a volume of 125 μL (typical) of 50 mM Ammonium bicarbonate for 20 minutes at 37° C. with 0.01% RapiGest™ surfactant or 0.01% of the indicated compound of the invention (upper and lower chromatograms, respectively). TFA was added to 0.5-2% and the mixtures were incubated at 37° C. or 65° C. for 20 or 30 minutes. Degraded surfactant was removed by centrifugation at 14,000×g for 5 minutes. HPLC analysis was performed on a 25-50 μL reaction sample using an HP1050 LC system with an Agilent Sorbax SB-C18 column (3.0×100 mm, 3.5 micron) and a gradient of 0.1% TFA (97.5% initial) and Acetonitrile, 0.01% TFA (55% final condition followed by a 100% wash step) and a flow rate of 0.75 mL/min. Peptides were detected at 214 and 280 nm.
(§1) For each compound numbered below in Example 12, the rate of enhanced digestion was determined from the ratio of the surfactant peak area (surfactant # Pk. Area) to the Rapigest™ surfactant peak area (RG Pk area). Peak area was determined as the sum of all peaks integrated from 8-22 minutes.

[2] = Solubility of the surfactant
[3] = target: T2, Bacteriorhodopsin digested with chymotrypsin (Halobacterium salinarum, UniProt P02945); test: Bacteriorhodopsin/Chymotrypsin digest, HPLC peak area versus RapiGest control; format: biochemical; details: 0.025% surfactant
T2 sequence (P02945 14-261 limits assumed): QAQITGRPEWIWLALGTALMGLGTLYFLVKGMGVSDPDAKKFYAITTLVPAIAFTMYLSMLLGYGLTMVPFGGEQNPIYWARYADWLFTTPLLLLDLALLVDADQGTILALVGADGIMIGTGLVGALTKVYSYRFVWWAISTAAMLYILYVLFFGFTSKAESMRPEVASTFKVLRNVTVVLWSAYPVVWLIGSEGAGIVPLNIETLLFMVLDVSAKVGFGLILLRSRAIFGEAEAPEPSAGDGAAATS
Experimental: Bacteriorhodopsin (25 μs) was heated with 0.025% Rapigest™ surfactant or the indicated compound of the invention for 5 minutes at 95° C., then digested with chymotrypsin (Sigma) at a 10:1 ratio in 125 μL 50 mM Ammonium bicarbonate for 1 hour at 37° C. After one hour TFA was added to 0.5-2% and the mixtures were incubated at 37° C. or 65° C. for 20 or 30 minutes. Degraded surfactant was removed by centrifugation at 14,000×g for 5 minutes. An aliquot of 50-100 μL of digested protein was analyzed by HPLC as described above.
Compound 3211, 3212, 3224 and Rapigest™ surfactant control for FIG. 13C reactions: Bacteriorhodopsin (25 μs) was solubilized with 0.025% compound of interest for 1-2 minutes at room temperature, then digested with chymotrypsin (Sigma) at a 10:1 ratio in 125 μL 50 mM Ammonium bicarbonate for 1 hour at 37° C. After one hour TFA was added to 0.5-2% and the mixtures were incubated at 37° C. or 65° C. for 20 or 30 minutes. Degraded surfactant was removed by centrifugation at 14,000×g for 5 minutes. An aliquot of 50-100 μL of digested protein was analyzed by HPLC as described above.
as §1

[4] = Acid and thermal degradation of the surfactant; details: for thermolability (in words): 3266: 5 minutes at 95° C.; for acid-lability (in words): 0.5% TFA at 37° C. where stated (3237: 30 minutes), 3271 by TLC analysis
[5] = Hydrolytic stability in 50 mM ammonium bicarbonate (reverse-phase HPLC); format: physicochemical
Experimental: Hydrolytic stability was measured by monitoring the change in retention time of the intact surfactant by reverse-phase HPLC. The ½-life is defined as the time required to reach 50% degradation.

[6] = BR heated (boiled) with surfactant 5 minutes at 95° C., chymotrypsin 10:1, 1 hour at 37° C., ratio to RapiGest control
[7] = 0.01% solution, 37° C. where stated
[8] = surfactant conc. 0.0025% in 50 mM ammonium bicarbonate
[9] = surfactant conc. 0.025% in 50 mM ammonium bicarbonate

SMILES | surfactant Pk area/RG Pk area, Myoglobin/Trypsin digest [1] | solubility in aqueous solutions (concentration dissolved to) ([2]; aqueous solution) [%] | surfactant Pk area/RG Pk area, Bacteriorhodopsin/Chymotrypsin digest [3, 6] | further results
CCCCCCCCCCOc1ccc(C(OCCN(CCCCS(=O)(=O)[O-])CCCCS(=O)(=O)[O-])(c2ccccc2)c2ccc(OC)cc2)cc1.[Na+].[Na+] (centres unmarked) [Compound 3220] | 0.2 | 1 | 0.8 | time to degradation in 0.5% TFA ([4]; 37° C. where stated, 0.1% solution for 3220 and 3266): ≤ 15 min; thermolability (in words) [4]: moderate thermolability
CCCCCCCCCCCC(C)(C)OC(=O)SCCS(=O)(=O)O [Compound 3189] | 1.1 | 0.5 | 0.6 | degradation of 0.01% solution (in words) [4, 7]: degraded only after overnight incubation
CCCCCCCCCCC(OC(=O)NCCCS(=O)(=O)O)c1cc(OC)cc(OC)c1 (centres unmarked) [Compound 3236] | 1.4 | 1 | 0.71 | degradation by acid (0.5% TFA) or by heat (boiling), in words ([4]; 3236: 0.1% solution in 0.5% TFA 30 minutes at 37° C. or 5 minutes of boiling without TFA): no degradation was observed
CCCCCCCCCCC(OC(=O)NCCCS(=O)(=O)O)c1ccccc1OC (centres unmarked) [Compound 3237] | 1.4 | 0.5 | 1 | acid-lability (in words) [4]: Moderate degradation was observed
CCCCCCCCCCCCCCC(OC(=O)NCCCS(=O)(=O)[O-])c1ccc(OC)cc1.[Na+] (centres unmarked) [Compound 3213] | 0.8 | 0.025 | 1.3 | ½-life [5, 8]: 62 h; ½-life [5, 9]: 128 h
CCCCCCCCCCOc1ccc(C(OCCN(CCCCS(=O)(=O)[O-])CCCCS(=O)(=O)[O-])(c2ccccc2)c2ccccc2)cc1.[Na+].[Na+] [Compound 3215] | 0.56 | 1 | 1.2 | time to degradation in 0.5% TFA ([4]; 0.1% solution): 60 min; thermolability (in words) [4]: moderate thermolability
CCCCCCCCCCCC(C)(C)OC(=O)NCC(O)CS(=O)(=O)[O-].[Na+] (centres unmarked) [Compound 3192] | 1.3 | 0.5 | 1.1 | degradation of 0.01% solution (in words) [4, 7]: degraded only after overnight incubation
CCCCCCCCCSCC(C)(C)OC(=O)NCCCS(=O)(=O)O [Compound 3206] | 0.26 | 0.5 | 0.8 | degradation rate (grade in words) [4]: moderate
CCCCCCOc1ccc(C(OCCCS(=O)(=O)[O-])(c2ccccc2)c2ccccc2)cc1.[Na+] [Compound 3202] | 1.1 | ~0.01 | 0.6 | time to degradation of 0.01% solution [4, 7]: ≤ 30 min
CCCCCCCCCCC1COC(c2cccc(OCCCS(=O)(=O)[O-])c2)O1.[Na+] (centres unmarked) [Compound 3228] | 1.4 | 1 | 1.2 | degradation rate (grade in words) [4]: low
CCCCCCCCCCC1COC(c2cc(OCCCS(=O)(=O)[O-])ccc2[N+](=O)[O-])O1.[Na+] (centres unmarked) [Compound 3225] | 1.1 |  | 0.9 | solubilized in DMSO to ([2]; 100% DMSO): 10%; solubility in aqueous solutions (in words) ([2]; aqueous solution): Not soluble in aqueous solutions; acid-lability (in words) [4]: slowly degrades in 0.5% TFA at 37 °C; thermolability (in words) [4]: No thermolability was observed
CCCCCCCC(C)(C)OC(=O)NCC(O)CS(=O)(=O)O (centres unmarked) [Compound 3204] | 0.87 | 0.5 | 0.55 | degradation rate (grade in words) [4]: moderate
CCCCCCCCCOCC(C)(C)OC(=O)NCCCS(=O)(=O)O [Compound 3205] | 0.3 | 0.5 | 0.45 | degradation after overnight incubation (in words) ([4]; overnight incubation, concentration not given): No degradation was observed even after overnight incubation
CCCCCCCCCCCCC(OC(=O)NCCCS(=O)(=O)O)c1ccco1 (centres unmarked) [Compound 3224] | 1.3 | 0.25 |  | ½-life [5, 8]: 1.3 h; ½-life [5, 9]: 8.3 h; ½-life ([5]; surfactant conc. 0.10% in 50 mM ammonium bicarbonate): 23 h; ½-life ([5]; surfactant conc. 0.25% in 50 mM ammonium bicarbonate): 22 h; solubility after adding ACN ([2]; ACN added to 20%): 2%; surfactant Pk area/RG Pk area, Bacteriorhodopsin/Chymotrypsin digest ([3]; BR solubilized at room temperature (not boiled), RapiGest control boiled): 0.74
